Source: patent US7957909B2, “Identification, monitoring and treatment of disease and characterization of biological condition using gene expression profiles” (Source Precision Medicine, Inc., priority 1999, dated 2011)

How the values were obtained:
[1] = tested on: Inflammation Gene Expression Panel of Table 1; assay: Inflammation index of stable rheumatoid arthritis patients under three treatment regimens (FIGS. 21-23); format: in vivo, human; settings: for inflammation index compared to normal: 10 stable rheumatoid arthritis patients per treatment group
Excerpt: (§1) FIG. 17A further illustrates the consistency of inflammatory gene expression, illustrated here with respect to 7 loci of (of the Inflammation Gene Expression Panel of Table 1), in a population of 44 normal, undiagnosed blood donors. For each individual locus is shown the range of values lying within ±2 standard deviations of the mean expression value, which corresponds to 95% of a normally distributed population. Notwithstanding the great width of the confidence interval (95%), the measured gene expression value (ΔCT)—remarkably—still lies within 10% of the mean, regardless of the expression level involved. As described in further detail below, for a given biological condition an index can be constructed to provide a measurement of the condition. This is possible as a result of the conjunction of two circumstances: (i) there is a remarkable consistency of Gene Expression Profiles with respect to a biological condition across a population and (ii) there can be employed procedures that provide substantially reproducible measurement of constituents in a Gene Expression Panel giving rise to a Gene Expression Profile, under measurement conditions wherein specificity and efficiencies of amplification for all constituents of the panel are substantially similar and which therefore provides a measurement of a biological condition. Accordingly, a function of the expression values of representative constituent loci of FIG. 17A is here used to generate an inflammation index value, which is normalized so that a reading of 1 corresponds to constituent expression values of healthy subjects, as shown in the right-hand portion of FIG. 17A.
This subject in fact was also on a regimen of an anti-inflammation steroid (prednisone) that was being tapered; within approximately one week after the inflammation index was sampled, the subject experienced a significant flare of clinical symptoms.

[2] = tested on: IL1A, IL1B, TNF, IFNG and IL10; assay: Acute Inflammation Index from blood of a single patient treated for optic neuritis (FIG. 2); format: in vivo, human; settings: single patient with optic neuritis
Excerpt: (§2) For measuring the amount of a particular RNA in a sample, we have used methods known to one of ordinary skill in the art to extract and quantify transcribed RNA from a sample with respect to a constituent of a Gene Expression Panel. (See detailed protocols below. Also see PCT application publication number WO 98/24935 herein incorporated by reference for RNA analysis protocols). Briefly, RNA is extracted from a sample such as a tissue, body fluid, or culture medium in which a population of a subject might be growing. For example, cells may be lysed and RNA eluted in a suitable solution in which to conduct a DNAse reaction. First strand synthesis may be performed using a reverse transcriptase. Gene amplification, more specifically quantitative PCR assays, can then conducted and the gene of interest size calibrated against a marker such as 18S rRNA (Hirayama et al., Blood 92, 1998: 46-52). Samples are measured in multiple duplicates, for example, 4 replicates. Relative quantitation of the mRNA is determined by the difference in threshhold cycles between the internal control and the gene of interest. In an embodiment of the invention, quantitative PCR is performed using amplification, reporting agents and instruments such as those supplied commercially by Applied Biosystems (Foster City, Calif.). […]

[3] = tested on: Inflammation Gene Expression Panel of Table 1; assay: Inflammatory gene expression in whole blood of a human subject after a single oral dose of prednisone (FIG. 14); format: in vivo
Excerpt: as §2

[4] = tested on: 5 genes (of the Inflammation Gene Expression Panel of Table 1); assay: Gene expression in whole blood samples from a subject given prednisone, challenged with lipopolysaccharide (FIG. 15); format: in vivo, human; settings: blood challenged with 0.1 ng/ml lipopolysaccharide
Excerpt: For measuring the amount of a particular RNA in a sample, we have used methods known to one of ordinary skill in the art to extract and quantify transcribed RNA from a sample with respect to a constituent of a Gene Expression Panel. (See detailed protocols below. Also see PCT application publication number WO 98/24935 herein incorporated by reference for RNA analysis protocols). Briefly, RNA is extracted from a sample such as a tissue, body fluid, or culture medium in which a population of a subject might be growing. For example, cells may be lysed and RNA eluted in a suitable solution in which to conduct a DNAse reaction. First strand synthesis may be performed using a reverse transcriptase. Gene amplification, more specifically quantitative PCR assays, can then conducted and the gene of interest size calibrated against a marker such as 18S rRNA (Hirayama et al., Blood 92, 1998: 46-52). Samples are measured in multiple duplicates, for example, 4 replicates. Relative quantitation of the mRNA is determined by the difference in threshhold cycles between the internal control and the gene of interest. In an embodiment of the invention, quantitative PCR is performed using amplification, reporting agents and instruments such as those supplied commercially by Applied Biosystems (Foster City, Calif.). Given a defined efficiency of amplification of target transcripts, the point (e.g., cycle number) that signal from amplified target template is detectable may be directly related to the amount of specific message transcript in the measured sample. Similarly, other quantifiable signals such as fluorescence, enzyme activity, disintegrations per minute, absorbance, etc., when correlated to a known concentration of target templates (e.g., a reference standard curve) or normalized to a standard with limited variability can be used to quantify the number of target templates in an unknown sample.
Specific RNAs are amplified using message specific primers or random primers. […]

[5] = tested on: IL1B; assay: Whole blood response to E. coli filtrate alone and with polymyxin B (FIG. 34); format: cell-based, human; settings: polymyxin B added to E. coli filtrate
Excerpt: FIGS. 27 through 41 illustrate the use of gene expression panels in early identification and monitoring of infectious disease. These figures plot the response, in expression products of the genes indicated, in whole blood, to the administration of various infectious agents or products associated with infectious agents. In each figure, the gene expression levels are “calibrated”, as that term is defined herein, in relation to baseline expression levels determined with respect to the whole blood prior to administration of the relevant infectious agent. In this respect the figures are similar in nature to various figures of our below-referenced patent application WO 01/25473 (for example, FIG. 15 therein). The concentration change is shown ratiometrically, and the baseline level of 1 for a particular gene locus corresponds to an expression level for such locus that is the same, monitored at the relevant time after addition of the infectious agent or other stimulus, as the expression level before addition of the stimulus. Ratiometric changes in concentration are plotted on a logarithmic scale. Bars below the unity line represent decreases in concentration and bars above the unity line represent increases in concentration, the magnitude of each bar indicating the magnitude of the ratio of the change. […]
The responses were monitored at 2, 6, and 24 hours after administration. […]

[6] = tested on: Inflammation Gene Expression Panel of Table 1; assay: Inflammation index of a single subject with inflammatory bowel disease treated with Remicade (FIG. 24); format: in vivo, human
Excerpt: as §1
FIG. 24 illustrates use of the inflammation index for assessment of a single subject suffering from inflammatory bowel disease, for whom treatment with Remicade was initiated in three doses. […] Again, the index, besides providing a measure of biological condition, is here used to measure the effectiveness of therapy (Remicade), as well as to provide a target for therapeutic intervention in terms of both dose and schedule.

[7] = tested on: Inflammation Gene Expression Panel of Table 1; settings: studies have shown; some subjects; cited from earlier work
[8] = 10 stable rheumatoid arthritis patients

## Enbrel
[1]; [8]
  patients with inflammation index in the normal range: 80%
[1]
  inflammation index compared to normal: comes much closer to normal

## C[C@]12C=CC(=O)C=C1CC[C@@H]1[C@@H]2C(=O)C[C@@]2(C)[C@H]1CC[C@]2(O)C(=O)CO [prednisone]
[2]; oral prednisone at 60 mg per day tapered to 10 mg per day
  acute inflammation index: goes up
[3]; 2 hr post single 60 mg oral dose
  expression of inflammation-related gene loci relative to baseline sample: decreased expression of most of inflammation-related gene loci
[3]; 24 hr post single 60 mg oral dose, loci with reduced expression at 2 hours
  expression of inflammation-related gene loci relative to baseline sample: elevated gene expression levels
[4]; 24 hours post administration
  gene expression of the 5 loci in relation to t=0: inhibitory effect of the prednisone is no longer apparent
  loci at which gene expression is higher than at t=0 (rebound effect): 3 of the 5 loci
[4]; two hours after single dose
  gene expression of the 5 loci in relation to t=0: dramatically reduced gene expression

## CN(Cc1cnc2nc(N)nc(N)c2n1)c1ccc(C(=O)N[C@@H](CCC(=O)O)C(=O)O)cc1 [methotrexate]
[1]
  inflammation index compared to normal: elevated compared to normal

## C[C@H]1C[C@@H]2[C@H]([C@@H](O)C[C@@]3(C)[C@H]2CC[C@]3(O)C(=O)COC(=O)CCC(=O)O)[C@@]2(C)C=CC(=O)C=C12 [solumedrol]
[2]; treatment with IV solumedrol at 1 gram per day
  acute inflammation index: falls rapidly

## polymyxin B
[5]
  effect on the response of IL1B locus to E. coli filtrate: did not affect the response

## Remicade: another TNF inhibitor
[6]; 24 hours after the first treatment
  inflammation index: returned to the normal range
[6]; just prior to the second dose
  inflammation index: elevated
[6]; prior to the third dose
  inflammation index: in the normal range
[7]
  association with infections in studies: associated with serious infections in some subjects
[1]; [8]
  abnormally low inflammation index in two of the patients: suggesting an immunosuppressive response
[1]
  inflammation index compared to normal: all but one of the patients being treated with Remicade have an inflammation index at or below normal
